# According to patent US20080193938A1, “Materials And Methods Relating To Breast Cancer Classification” (priority 2005, published 2008):
# Tests used:
# MCF-7 cells = test: Tamoxifen induced apoptosis, Annexin-V flow cytometry in control and RLN2 silenced MCF-7 cells; type: cell-based; conditions: 1 μM tamoxifen for 48 hrs, analyzed 72 hrs after withdrawal
# Experimental: FIG. 13B. Flow cytometric analysis of Tamoxifen sensitivity in RLN2 silenced MCF-7 cells: RLN2 silenced and control cells were treated with 1 μm Tamoxifen or equivalent quantity of vehicle for 48 hrs and subsequently, the treatment was withdrawn. After 72 hrs, Annexin-V staining positive cells were scored in Flow cytometry, which is a measure for tamoxifen induced apoptosis.
# MCF-7 cells (ATCC) were maintained in DMEM growth media supplemented with 10% fetal bovine serum (FBS), 100 U/mL penicillin, 100 U/mL streptomycin, and 2 mM L-glutamine. […] RLN2 silenced and control cells were treated with 1 μM Tamoxifen or equivalent quantity of vehicle for 48 hrs and subsequently, the treatment was withdrawn by changing the culture media to DMEM with 5% DCC. After 72 hrs, cells were trypsinized and stained with Annexin-V-Fluorescein and propidium iodide as recommended by the manufacturer (Roche) and the analyzed in Flow cytometer (Beckman-Coulter). The population of annexin-V positive cells was scored as the representation of the percentages of apoptotic cells.
# To functionally investigate the association of the TuM1 signature with a tumor's response to anti-hormonal treatment, the role of a representative TuM1 gene, Relaxin2 (RLN2) was assessed in a ER+ breast cancer cellular model. […]
# TuM1 module = test: Gene set enrichment analysis of tumor module expression in tamoxifen treated MCF7 cells; type: cell-based; conditions: 10 μM tamoxifen, harvested at 48 hrs; FDR=0.05
# Experimental: MCF-7 breast cancer cells were obtained from American Type Culture Collection center (Manassas, Va.), and cells were cultured in Dulbecco's modified Eagle medium (DMEM) (Gibco, Grand Island, N.Y.) supplemented with 10% fetal bovine serum (FBS), 100 U/mL penicillin, 100 U/mL streptomycin, and 2 mM L-glutamine. Before tamoxifen treatment, cells were washed three times in PBS and maintained in phenol red free DMEM with 5% Dextran charcoal-stripped FBS (HyClone Laboratories, Pittsburgh, Pa.) for 24 hrs. Subsequently cells were treated with 10 μM tamoxifen (Sigma) and harvested at 48 hrs. Control sister cultures were treated with an equivalent volume of the vehicle (0.1% ethanol).
# GSEA was used to ask if expression of the tumor module genes might be affected by tamoxifen treatment. Four control samples and two post-treatment samples (See Materials and Methods) were used for GSEA analysis. Three modules (TuM4, 5 and 6) were filtered out due to insufficient number of genes (<10) expressed in MCF7 cell lines.
# The observation that TuM1 is expressed in a subset of ER+ tumors raises the possibility that expression of this module may depend, at least in some part, on ER activity and signaling. To investigate the relationship between TuM1 expression and ER signaling, we tested the responsiveness of TuM1 to ER activity using an in vitro system. […]
structure (smiles),measurement,setting,value
CC/C(=C(\c1ccccc1)c1ccc(OCCN(C)C)cc1)c1ccccc1 [tamoxifen],percentage of apoptotic (annexin-V-staining positive) cells,MCF-7 cells; RLN2 silenced (siRNA) MCF-7 cells,about 23%
same,percentage of apoptotic (annexin-V-staining positive) cells,MCF-7 cells; control MCF-7 cells,about 73%
same,TuM1 expression in tam-treated MCF7 cells compared to controls (GSEA),TuM1 module,significantly downregulated
